Experimental data as given in patent publication US20230295182A1, “SPIRO DERIVATIVES OF ALPHA-D-GALACTOPYRANOSIDES” (Idorsia Pharmaceuticals Ltd, priority 2020, published 2023).

How the values were obtained:
human Gal-3 (hGal-3) = human Gal-3 (hGal-3) (Homo sapiens (Human), UniProt P17931); test: Competitive binding assay: biotinylated hGal-3 to microplate-adsorbed asialofetuin (ASF); conditions: Activity on hGal-3; binding to ASF-coated plates, 3 hours at 4° C.; mean values
How it was run: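 Biotinylated hGal-3 (300-1000 ng/mL) binding to plate-adsorbed asialofetuin, with DMSO-diluted compound added, incubated 3 h at 4 °C. After washing, bound protein detected with streptavidin-peroxidase (80 ng/mL, 1 h, 4 °C) and ABTS substrate, read spectrophotometrically. IC50 given as mean of several measurements.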

human Gal-1 (hGal-1) = human Gal-1 (hGal-1) (Homo sapiens, UniProt P09382); test: Competitive binding assay: biotinylated hGal-1 to microplate-adsorbed asialofetuin (ASF); conditions: Activities on hGal-1; binding to ASF-coated plates, 3 hours at 4° C.; mean values; read-out: Gal-1 IC50
Sequence of human Gal-1 (hGal-1) (P09382 2-135 limits assumed): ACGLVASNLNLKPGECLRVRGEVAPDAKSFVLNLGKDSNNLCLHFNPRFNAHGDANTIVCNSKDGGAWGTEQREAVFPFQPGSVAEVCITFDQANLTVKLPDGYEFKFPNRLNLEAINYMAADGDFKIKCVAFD
How it was run: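 Plate-adsorbed asialofetuin is incubated 3 h at 4 °C with biotinylated hGal-1, optionally its all-serine-substituted cysteine variant, plus compound dilutions. ABTS color after 1 h streptavidin-peroxidase (80 ng/mL) at 4 °C reports binding. Reported IC50 is a mean across repeat runs.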

Sequence of human Gal-3 (hGal-3) (P17931 whole entry): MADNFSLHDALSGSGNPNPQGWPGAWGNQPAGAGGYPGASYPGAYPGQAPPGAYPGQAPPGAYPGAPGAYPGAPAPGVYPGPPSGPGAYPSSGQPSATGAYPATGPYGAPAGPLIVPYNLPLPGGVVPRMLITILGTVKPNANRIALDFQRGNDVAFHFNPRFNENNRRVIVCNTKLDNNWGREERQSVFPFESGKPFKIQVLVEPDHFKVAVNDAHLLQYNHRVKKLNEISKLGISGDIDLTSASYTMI

SMILES	IC50 (human Gal-3 (hGal-3))	IC50 (human Gal-1 (hGal-1))
CO[C@@H]1[C@@H](n2cc(-c3cc(F)c(F)c(F)c3)nn2)[C@@H](O)[C@@H](CO)O[C@@H]1CC1=NO[C@]2(CC[C@H](NCC(F)F)CC2)C1 [Example 2.20, (2R,3R,4S,5R,6R)-6-(((5r,8R)-8-((2,2-difluoroethyl)amino)-1-oxa-2-azaspiro[4.5]dec-2-en-3-yl)methyl)-2-(hydroxymethyl)-5-methoxy-4-(4-(3,4,5-trifluorophenyl)-1H-1,2,3-triazol-1-yl)tetrahydro-2H-pyran-3-ol]	110 nM	1800 nM
CO[C@@H]1[C@@H](n2cc(-c3cc(F)c(F)c(F)c3)nn2)[C@@H](O)[C@@H](CO)O[C@@H]1CC1=NO[C@]2(CC[C@@H](NC(C)C)CC2)C1 [Example 2.13, (2R,3R,4S,5R,6R)-2-(hydroxymethyl)-6-(((5s,8S)-8-(isopropylamino)-1-oxa-2-azaspiro[4.5]dec-2-en-3-yl)methyl)-5-methoxy-4-(4-(3,4,5-trifluorophenyl)-1H-1,2,3-triazol-1-yl)tetrahydro-2H-pyran-3-ol]	550 nM	7000 nM
CO[C@@H]1[C@@H](n2cc(-c3ccc(F)c(F)c3F)nn2)[C@@H](O)[C@@H](CO)O[C@@H]1CC1=NOC2(CCOCC2)C1 [Example 1.35, (2R,3R,4S,5R,6R)-6-((1,8-dioxa-2-azaspiro[4.5]dec-2-en-3-yl)methyl)-2-(hydroxymethyl)-5-methoxy-4-(4-(2,3,4-trifluorophenyl)-1H-1,2,3-triazol-1-yl)tetrahydro-2H-pyran-3-ol]	110 nM	1400 nM
CC(=O)O[C@@H]1[C@@H](n2cc(-c3ccc(C)c(F)c3F)nn2)[C@@H](O)[C@@H](CO)O[C@@H]1CC1=NOC2(CCC(F)(F)CC2)C1 [Example 1.03, (2R,3R,4S,5R,6R)-2-((8,8-difluoro-1-oxa-2-azaspiro[4.5]dec-2-en-3-yl)methyl)-4-(4-(2,3-difluoro-4-methylphenyl)-1H-1,2,3-triazol-1-yl)-5-hydroxy-6-(hydroxymethyl)tetrahydro-2H-pyran-3-yl acetate]	79 nM	> 100000 nM
CO[C@@H]1[C@@H](n2cc(-c3cc(F)c(F)c(F)c3)nn2)[C@@H](O)[C@@H](CO)O[C@@H]1CC1=NOC2(CCCC2)C1 [Example 1.09, (2R,3R,4S,5R,6R)-6-((1-oxa-2-azaspiro[4.4]non-2-en-3-yl)methyl)-2-(hydroxymethyl)-5-methoxy-4-(4-(3,4,5-trifluorophenyl)-1H-1,2,3-triazol-1-yl)tetrahydro-2H-pyran-3-ol]	950 nM	2700 nM
Cc1ccc(-c2cn([C@H]3[C@@H](O)[C@@H](CO)O[C@H](CC4=NOC5(CCOCC5)C4)[C@@H]3OCC(=O)O)nn2)c(F)c1F [Example 2.24, 2-(((2R,3R,4S,5R,6R)-2-((1,8-dioxa-2-azaspiro[4.5]dec-2-en-3-yl)methyl)-4-(4-(2,3-difluoro-4-methylphenyl)-1H-1,2,3-triazol-1-yl)-5-hydroxy-6-(hydroxymethyl)tetrahydro-2H-pyran-3-yl)oxy)acetic acid]	80 nM	6700 nM
CC(=O)O[C@@H]1[C@@H](n2cc(-c3ccc(C)c(F)c3F)nn2)[C@@H](O)[C@@H](CO)O[C@@H]1CC1=NOC2(CCOCC2)C1 [Example 1.01, (2R,3R,4S,5R,6R)-2-((1,8-dioxa-2-azaspiro[4.5]dec-2-en-3-yl)methyl)-4-(4-(2,3-difluoro-4-methylphenyl)-1H-1,2,3-triazol-1-yl)-5-hydroxy-6-(hydroxymethyl)tetrahydro-2H-pyran-3-yl acetate]	61 nM	4200 nM
CO[C@@H]1[C@@H](n2cc(-c3cc(F)c(F)c(F)c3)nn2)[C@@H](O)[C@@H](CO)O[C@@H]1CC1=NO[C@]2(CC[C@@H](NCC(F)F)CC2)C1 [Example 2.21, (2R,3R,4S,5R,6R)-6-(((5s,8S)-8-((2,2-difluoroethyl)amino)-1-oxa-2-azaspiro[4.5]dec-2-en-3-yl)methyl)-2-(hydroxymethyl)-5-methoxy-4-(4-(3,4,5-trifluorophenyl)-1H-1,2,3-triazol-1-yl)tetrahydro-2H-pyran-3-ol]	380 nM	1600 nM
